Test results taken from ChEMBL document CHEMBL5649166, “RIP3 induces apoptosis independent of pronecrotic kinase activity” (Mol Cell, 2014).
Active and inactive are the calls of the source. The rule behind the calls is not given here.

Key:
[1] = molecular target: Serine/threonine-protein kinase 10 (Homo sapiens) (UniProt O94804); experiment: Inhibition of human LOK/STK10 using RLGRDKYKTLRQIRQ as substrate at 1 uM in presence of 32P-ATP by Hotspot assay relative to control; values are per cent of control
Sequence of Serine/threonine-protein kinase 10 (Homo sapiens) (O94804 whole entry, looked up): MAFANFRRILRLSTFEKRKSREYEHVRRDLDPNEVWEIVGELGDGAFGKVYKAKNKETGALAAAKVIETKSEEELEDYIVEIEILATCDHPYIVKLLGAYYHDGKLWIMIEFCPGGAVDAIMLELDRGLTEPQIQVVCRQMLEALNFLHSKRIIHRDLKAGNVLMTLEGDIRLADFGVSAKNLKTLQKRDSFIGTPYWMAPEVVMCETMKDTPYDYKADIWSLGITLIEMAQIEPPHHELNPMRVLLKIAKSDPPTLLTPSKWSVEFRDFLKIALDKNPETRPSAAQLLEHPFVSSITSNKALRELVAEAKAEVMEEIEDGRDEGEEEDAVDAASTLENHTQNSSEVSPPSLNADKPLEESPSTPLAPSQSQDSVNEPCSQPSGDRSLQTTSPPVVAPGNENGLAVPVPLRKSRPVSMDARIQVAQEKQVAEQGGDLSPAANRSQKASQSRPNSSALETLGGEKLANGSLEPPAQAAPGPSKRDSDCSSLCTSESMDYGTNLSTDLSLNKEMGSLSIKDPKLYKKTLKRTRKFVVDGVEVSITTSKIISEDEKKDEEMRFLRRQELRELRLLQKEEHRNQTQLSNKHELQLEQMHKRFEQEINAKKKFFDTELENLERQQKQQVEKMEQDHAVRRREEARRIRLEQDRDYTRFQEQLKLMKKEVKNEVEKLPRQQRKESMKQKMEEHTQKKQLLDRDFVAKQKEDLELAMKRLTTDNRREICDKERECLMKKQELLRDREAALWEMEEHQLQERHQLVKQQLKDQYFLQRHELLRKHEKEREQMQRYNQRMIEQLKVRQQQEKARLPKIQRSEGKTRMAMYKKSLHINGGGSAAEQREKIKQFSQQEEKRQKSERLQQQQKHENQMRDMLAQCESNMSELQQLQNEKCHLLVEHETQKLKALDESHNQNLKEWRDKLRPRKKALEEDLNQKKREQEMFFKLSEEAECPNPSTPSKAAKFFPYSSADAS

[2] = molecular target: Activin receptor type-1-like (Homo sapiens) (UniProt P37023); experiment: Inhibition of human ALK1/ACVRL1 using casein as substrate at 1 uM in presence of 32P-ATP by Hotspot assay relative to control; values are per cent of control
Sequence of Activin receptor type-1-like (Homo sapiens) (P37023 whole entry): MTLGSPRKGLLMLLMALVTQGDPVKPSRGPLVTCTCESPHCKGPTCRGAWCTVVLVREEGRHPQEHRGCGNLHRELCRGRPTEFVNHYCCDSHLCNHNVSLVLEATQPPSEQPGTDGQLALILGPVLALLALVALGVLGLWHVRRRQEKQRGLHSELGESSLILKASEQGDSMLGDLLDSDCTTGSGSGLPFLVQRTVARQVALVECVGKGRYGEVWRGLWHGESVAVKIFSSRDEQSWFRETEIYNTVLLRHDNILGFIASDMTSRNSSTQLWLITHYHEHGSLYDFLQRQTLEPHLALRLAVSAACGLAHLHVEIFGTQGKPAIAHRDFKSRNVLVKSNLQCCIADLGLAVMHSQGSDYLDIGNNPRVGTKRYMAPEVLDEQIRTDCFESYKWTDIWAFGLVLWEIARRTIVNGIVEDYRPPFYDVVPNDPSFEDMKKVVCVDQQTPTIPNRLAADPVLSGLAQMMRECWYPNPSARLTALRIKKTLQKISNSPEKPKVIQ

[3] = molecular target: Fibroblast growth factor receptor 4 (Homo sapiens) (UniProt P22455); experiment: Inhibition of human FGFR4 using poly[Glu:Tyr] (4:1) as substrate at 1 uM in presence of 32P-ATP by Hotspot assay relative to control; values are per cent of control
Sequence of Fibroblast growth factor receptor 4 (Homo sapiens) (P22455 22-802 limits assumed): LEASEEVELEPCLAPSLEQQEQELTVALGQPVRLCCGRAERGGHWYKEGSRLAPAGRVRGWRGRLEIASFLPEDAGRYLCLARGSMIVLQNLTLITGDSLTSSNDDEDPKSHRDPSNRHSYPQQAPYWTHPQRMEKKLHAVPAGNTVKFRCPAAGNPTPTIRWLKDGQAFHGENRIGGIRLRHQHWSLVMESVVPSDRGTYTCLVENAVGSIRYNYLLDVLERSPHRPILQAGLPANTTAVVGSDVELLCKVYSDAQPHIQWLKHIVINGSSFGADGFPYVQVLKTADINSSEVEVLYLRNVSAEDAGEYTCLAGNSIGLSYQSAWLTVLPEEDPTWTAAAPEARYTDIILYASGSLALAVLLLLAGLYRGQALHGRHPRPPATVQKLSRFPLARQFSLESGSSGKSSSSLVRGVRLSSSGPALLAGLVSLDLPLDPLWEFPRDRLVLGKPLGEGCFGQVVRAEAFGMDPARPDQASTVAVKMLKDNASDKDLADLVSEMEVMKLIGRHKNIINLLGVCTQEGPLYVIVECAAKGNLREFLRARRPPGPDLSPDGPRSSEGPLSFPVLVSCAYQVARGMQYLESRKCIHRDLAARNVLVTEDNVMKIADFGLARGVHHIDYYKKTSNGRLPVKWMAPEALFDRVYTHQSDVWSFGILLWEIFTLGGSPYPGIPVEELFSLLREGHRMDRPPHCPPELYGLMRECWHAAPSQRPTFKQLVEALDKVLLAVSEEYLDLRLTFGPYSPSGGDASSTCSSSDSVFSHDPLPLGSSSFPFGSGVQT

[4] = molecular target: T1, Tyrosine-protein kinase ZAP-70 (Homo sapiens) (UniProt P43403); experiment: Inhibition of human ZAP70 using poly[Glu:Tyr] (4:1) as substrate at 1 uM in presence of 32P-ATP by Hotspot assay relative to control; values are per cent of control
T1 sequence (whole entry): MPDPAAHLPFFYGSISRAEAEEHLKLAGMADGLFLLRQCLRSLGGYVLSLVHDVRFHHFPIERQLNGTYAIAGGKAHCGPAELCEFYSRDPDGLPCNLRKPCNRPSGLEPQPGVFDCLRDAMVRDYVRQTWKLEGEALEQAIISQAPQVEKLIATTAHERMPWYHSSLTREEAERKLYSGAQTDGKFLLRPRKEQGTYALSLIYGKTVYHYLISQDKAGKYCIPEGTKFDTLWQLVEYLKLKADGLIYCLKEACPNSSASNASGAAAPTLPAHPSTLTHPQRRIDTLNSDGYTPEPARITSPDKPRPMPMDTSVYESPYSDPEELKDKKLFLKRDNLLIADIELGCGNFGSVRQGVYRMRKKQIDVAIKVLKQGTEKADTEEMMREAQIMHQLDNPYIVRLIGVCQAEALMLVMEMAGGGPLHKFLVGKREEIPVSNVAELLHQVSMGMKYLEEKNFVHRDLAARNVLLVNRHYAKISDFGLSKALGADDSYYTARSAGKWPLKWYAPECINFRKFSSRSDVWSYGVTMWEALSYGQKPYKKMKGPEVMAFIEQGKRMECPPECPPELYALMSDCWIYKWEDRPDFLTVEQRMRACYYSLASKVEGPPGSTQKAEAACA

[5] = molecular target: Serine/threonine-protein kinase PAK 3 (Homo sapiens) (UniProt O75914); experiment: Inhibition of human PAK3 using RRRLSFAEPG as substrate at 1 uM in presence of 32P-ATP by Hotspot assay relative to control; values are per cent of control
Sequence of Serine/threonine-protein kinase PAK 3 (Homo sapiens) (O75914 whole entry, looked up): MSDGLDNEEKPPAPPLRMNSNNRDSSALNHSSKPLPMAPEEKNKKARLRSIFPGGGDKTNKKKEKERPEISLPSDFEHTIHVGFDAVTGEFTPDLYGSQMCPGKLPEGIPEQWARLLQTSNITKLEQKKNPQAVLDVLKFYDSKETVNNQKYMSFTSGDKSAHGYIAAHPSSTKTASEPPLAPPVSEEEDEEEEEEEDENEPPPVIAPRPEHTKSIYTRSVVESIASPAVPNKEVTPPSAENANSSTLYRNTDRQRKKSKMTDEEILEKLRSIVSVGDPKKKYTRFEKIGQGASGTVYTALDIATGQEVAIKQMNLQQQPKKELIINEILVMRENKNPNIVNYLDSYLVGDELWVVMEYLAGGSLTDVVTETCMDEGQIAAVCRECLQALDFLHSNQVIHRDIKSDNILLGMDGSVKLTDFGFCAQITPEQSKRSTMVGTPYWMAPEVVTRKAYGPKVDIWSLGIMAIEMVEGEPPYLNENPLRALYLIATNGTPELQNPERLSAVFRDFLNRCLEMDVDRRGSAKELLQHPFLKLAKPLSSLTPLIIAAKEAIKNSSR

BMDM = experiment: Inhibition of TNF-alpha induced necroptosis in mouse BMDM cells assessed as increase in cell viability at 0.04 to 1 uM incubated for 18 hrs in presence of zVAD and BV6 by Cell Titer-Glo luminescent cell viability assay; type: functional, cell-based; settings: dose 0.04-1 µM
[6] = molecular target: Tyrosine-protein kinase JAK1 (Homo sapiens) (UniProt P23458); experiment: Inhibition of human JAK1 using poly[Glu:Tyr] (4:1) as substrate at 1 uM in presence of 32P-ATP by Hotspot assay relative to control; values are per cent of control
Sequence of Tyrosine-protein kinase JAK1 (Homo sapiens) (P23458 whole entry): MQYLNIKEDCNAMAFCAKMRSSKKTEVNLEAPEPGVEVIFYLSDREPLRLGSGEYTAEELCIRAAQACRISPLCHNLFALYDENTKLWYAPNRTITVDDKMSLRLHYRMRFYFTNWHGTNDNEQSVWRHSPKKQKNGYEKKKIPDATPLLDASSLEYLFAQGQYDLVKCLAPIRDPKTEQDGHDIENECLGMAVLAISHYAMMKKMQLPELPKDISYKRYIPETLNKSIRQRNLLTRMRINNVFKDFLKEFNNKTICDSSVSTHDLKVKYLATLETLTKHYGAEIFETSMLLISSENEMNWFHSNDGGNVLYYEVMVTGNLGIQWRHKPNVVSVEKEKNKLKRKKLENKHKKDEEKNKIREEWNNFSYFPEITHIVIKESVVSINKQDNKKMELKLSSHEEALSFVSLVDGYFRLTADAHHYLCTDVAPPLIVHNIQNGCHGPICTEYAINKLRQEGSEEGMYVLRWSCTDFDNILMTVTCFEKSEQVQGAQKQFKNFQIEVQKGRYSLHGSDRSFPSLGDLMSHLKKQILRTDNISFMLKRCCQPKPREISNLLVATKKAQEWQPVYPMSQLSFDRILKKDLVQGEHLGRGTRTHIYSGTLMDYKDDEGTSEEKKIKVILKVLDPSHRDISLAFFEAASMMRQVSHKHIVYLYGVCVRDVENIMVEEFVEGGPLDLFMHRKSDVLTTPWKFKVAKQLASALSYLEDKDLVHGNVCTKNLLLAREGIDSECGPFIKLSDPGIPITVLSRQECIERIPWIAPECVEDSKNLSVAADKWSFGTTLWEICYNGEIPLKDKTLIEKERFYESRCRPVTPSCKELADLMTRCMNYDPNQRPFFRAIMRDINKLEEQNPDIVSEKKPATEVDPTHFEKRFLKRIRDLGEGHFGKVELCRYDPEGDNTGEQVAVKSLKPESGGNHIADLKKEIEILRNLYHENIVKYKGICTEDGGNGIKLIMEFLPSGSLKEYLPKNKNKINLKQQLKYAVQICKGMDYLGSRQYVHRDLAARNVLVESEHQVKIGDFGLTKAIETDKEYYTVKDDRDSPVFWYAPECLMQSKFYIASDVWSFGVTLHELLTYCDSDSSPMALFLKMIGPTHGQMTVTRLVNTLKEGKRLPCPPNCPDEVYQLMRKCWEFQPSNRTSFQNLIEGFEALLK

[7] = molecular target: Tyrosine-protein kinase receptor UFO (Homo sapiens) (UniProt P30530); experiment: Inhibition of human AXL using poly[Glu:Tyr] (4:1) as substrate at 1 uM in presence of 32P-ATP by Hotspot assay relative to control; values are per cent of control
[8] = molecular target: T2, Mitogen-activated protein kinase kinase kinase 3 (Homo sapiens) (UniProt Q99759); experiment: Inhibition of human MEKK3 using myelin basic protein as substrate at 1 uM in presence of 32P-ATP by Hotspot assay relative to control; values are per cent of control
T2 sequence (whole entry): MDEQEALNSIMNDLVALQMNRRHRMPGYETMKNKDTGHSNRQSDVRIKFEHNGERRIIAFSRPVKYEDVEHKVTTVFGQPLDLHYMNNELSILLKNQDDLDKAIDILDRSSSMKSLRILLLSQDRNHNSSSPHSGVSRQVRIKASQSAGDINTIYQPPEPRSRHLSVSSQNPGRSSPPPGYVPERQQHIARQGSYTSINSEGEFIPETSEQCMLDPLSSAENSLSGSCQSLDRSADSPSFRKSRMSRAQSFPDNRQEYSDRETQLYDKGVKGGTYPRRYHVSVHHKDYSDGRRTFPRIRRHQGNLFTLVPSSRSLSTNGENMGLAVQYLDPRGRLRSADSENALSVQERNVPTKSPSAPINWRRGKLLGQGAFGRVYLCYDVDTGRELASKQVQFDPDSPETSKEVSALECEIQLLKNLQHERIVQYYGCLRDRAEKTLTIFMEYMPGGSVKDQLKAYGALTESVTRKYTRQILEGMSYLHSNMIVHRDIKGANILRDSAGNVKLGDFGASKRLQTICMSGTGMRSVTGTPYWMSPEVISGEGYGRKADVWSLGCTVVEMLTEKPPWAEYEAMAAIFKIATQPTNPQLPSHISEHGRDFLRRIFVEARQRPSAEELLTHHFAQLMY

[9] = molecular target: Mitogen-activated protein kinase 3 (Homo sapiens) (UniProt P27361); experiment: Inhibition of human ERK1 using myelin basic protein as substrate at 1 uM in presence of 32P-ATP by Hotspot assay relative to control; values are per cent of control
Sequence of Mitogen-activated protein kinase 3 (Homo sapiens) (P27361 whole entry): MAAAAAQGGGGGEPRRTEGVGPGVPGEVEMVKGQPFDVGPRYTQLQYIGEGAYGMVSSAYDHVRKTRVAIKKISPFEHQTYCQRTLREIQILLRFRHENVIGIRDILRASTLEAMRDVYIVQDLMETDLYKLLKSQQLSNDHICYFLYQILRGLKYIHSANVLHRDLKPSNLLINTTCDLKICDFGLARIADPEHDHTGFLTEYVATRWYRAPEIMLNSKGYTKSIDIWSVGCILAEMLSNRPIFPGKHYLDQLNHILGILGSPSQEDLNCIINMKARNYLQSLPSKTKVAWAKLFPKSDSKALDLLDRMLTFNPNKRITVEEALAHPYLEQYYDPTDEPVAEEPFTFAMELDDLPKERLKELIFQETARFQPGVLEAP

[10] = molecular target: Serine/threonine-protein kinase PLK3 (Homo sapiens) (UniProt Q9H4B4); experiment: Residual activity of human PLK3 using casein as substrate at 1 uM in presence of 32P-ATP by Hotspot assay relative to control
Sequence of Serine/threonine-protein kinase PLK3 (Homo sapiens) (Q9H4B4 whole entry, looked up): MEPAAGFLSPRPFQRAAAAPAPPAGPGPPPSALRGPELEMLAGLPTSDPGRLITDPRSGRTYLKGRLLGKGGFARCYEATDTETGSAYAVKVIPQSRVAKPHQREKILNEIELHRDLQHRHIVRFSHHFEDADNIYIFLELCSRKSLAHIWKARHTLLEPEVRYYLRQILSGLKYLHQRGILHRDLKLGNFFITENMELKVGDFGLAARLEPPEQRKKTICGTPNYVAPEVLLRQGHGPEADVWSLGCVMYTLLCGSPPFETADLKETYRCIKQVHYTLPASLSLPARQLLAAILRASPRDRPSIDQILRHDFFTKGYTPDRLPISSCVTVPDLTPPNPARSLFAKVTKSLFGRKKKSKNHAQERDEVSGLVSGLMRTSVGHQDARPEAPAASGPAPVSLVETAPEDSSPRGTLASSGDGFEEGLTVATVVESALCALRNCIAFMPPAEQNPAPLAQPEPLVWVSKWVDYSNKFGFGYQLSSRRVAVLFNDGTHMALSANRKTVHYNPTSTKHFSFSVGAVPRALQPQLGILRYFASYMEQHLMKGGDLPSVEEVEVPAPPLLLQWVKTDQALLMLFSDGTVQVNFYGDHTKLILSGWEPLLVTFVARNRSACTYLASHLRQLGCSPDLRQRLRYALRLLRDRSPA

Compound | residual activity [1] | residual activity [2] | residual activity [3] | residual activity [4] | residual activity [5] | inhibition (BMDM) | residual activity [6] | residual activity [7] | residual activity [8] | residual activity [9] | residual activity [10]
CNC(=O)c1ccc2c(c1)ncn2-c1ccc(CC(=O)OC(C)(C)C)cc1 | 96.8% | 95.4% | 93.4% | 102% | 105% | inactive | 98.2% | 92.6% | 96% | 94.7% | 106%
Cc1cc(-c2cnc(N)c3c(-c4ccc5scnc5c4)csc23)n(C)n1 | 78.2% | 93.9% | 47.4% | 89.8% | 96.6% | Active | 88.3% | 101% | 95% | 93.3% | 91.7%
CC(C)S(=O)(=O)c1ccc2nccc(Nc3ccc4scnc4c3)c2c1 | 70.9% | 102% | 77.6% | 102% | 97.8% | Active | 94.9% | 101% | 92.3% | 89.9% | 102%
